According to article PMC9953095, “Design, Synthesis and Biological Evaluation of Quinazolinamine Derivatives as Breast Cancer Resistance Protein and P-Glycoprotein Inhibitors with Improved Metabolic Stability” (Biomolecules, 2023):
“And” between values parts separate entries of the source, which are not always exact repeats. Equal values may be shown once.

Legend:
[1] = Metabolic stability with human liver microsomes; type: in vitro ADME; conditions: after 1 h of incubation with human liver microsomes, 37 °C, NADPH; note: tested at 200 µM
Procedure: Human liver microsome (20 mg/mL) 6.25 µL, nicotinamide adenine dinucleotide phosphate (NADPH) (0.75 µmol), MgCl2 (0.75 µmol), and the test compound (0.05 µmol) were added into a potassium phosphate buffer (pH 7.4) with 250 µL of final volume. The incubation was carried out aerobically at 37 °C. The mixture was pre-incubated without NADPH for 10 min at 37 °C and NADPH was added to start the reaction. At 1 h after the start of the reaction, an aliquot (50 µL) of the incubation mixture was taken from each incubation and mixed with 150 µL of ice-cold acetonitrile to terminate the reaction. Subsequently, the sample was centrifuged (12,000 rpm) at room temperature. The resulting supernatant was filtered and analyzed using HPLC (LC, Agilent 1200; column, HC-C18(2); column temperature, 25 °C; mobile phase, solvent A, methanol, solvent B, water; gradient elution, 30–99% solvent A; flow rate, 1 mL/min; UV signals were recorded at 254 nm).

[2] = system: BCRP-overexpressing H460/MX20 cells; experiment: [3H]-mitoxantrone accumulation assay, H460/MX20; type: cell-based, human; conditions: resistant H460/MX20 cells; compound 5 μM; Figure 6A
Procedure: (§1) To determine the accumulation of drugs on H460, H460/MX20, KB-3-1, and KB-C2 cells, the cells ([…] cells/well) were seeded in the 24-well plates and incubated at 37 °C with 5% CO2 [17]. After 12 h of incubation, a test compound (5 µM) was added and the plates were incubated at 37 °C for 2 h. Cells were then incubated with 0.01 µM [^3H]-MX or [^3H]-paclitaxel-containing medium for an additional 2 h at 37 °C, with or without a test compound. The cells were washed twice with ice-cold phosphate-buffered saline (PBS), trypsinized and lysed at the end of incubation. The radioactivity was measured using the Packard TRICARB1 1900A liquid scintillation analyzer.

KB-3-1 cells = experiment: [3H]-paclitaxel accumulation assay, KB-3-1; type: cell-based, human; conditions: parental cells KB-3-1; compound 5 μM; Figure 6B
Procedure: as §1

KB-C2 cells = experiment: [3H]-paclitaxel accumulation assay, KB-C2; type: cell-based, human; conditions: resistant cell line KB-C2; compound 5 μM; Figure 6B
Procedure: as §1

[3] = system: BCRP protein in H460/MX20 cells; experiment: Western blot of BCRP expression in H460/MX20 cells; type: cell-based, human
Procedure: Cells in T25 flask were washed with ice-cold PBS. Lysis buffer (100 µL) was added into T25 flask. Using a cell scraper, scrape adherent cells were scraped off the flask and the cell suspension was transferred into a microcentrifuge tube (1.5 mL). Cells were agitated for 20 min at 4 °C and cell lysate was centrifuged mixture at 4 °C for 20 min at 12,000 rpm. The supernatant (lysate) was used for the gel electrophoresis. Equal amounts of total cell lysates (20 µg protein) were resolved by sodium dodecyl sulfate polyacrylamide gel electrophoresis (SDS-PAGE) and electrophoretically transferred onto polyvinylidene fluoride (PVDF) membranes. After incubation in a blocking solution (5% milk) for 2 h at room temperature, the membranes were incubated overnight with primary monoclonal antibodies against GAPDH (GA1R) (Invitrogen, Carlsbad, CA, USA) at 1:1000 dilution of BCRP protein (BXP 21) (Sigma-Aldrich, Inc., St. Louis, MO, USA) (1:1000) or P-gp (F4) (Sigma-Aldrich, Inc., St. Louis, MO, USA) at 4 °C, and were further incubated with horseradish […] (HRP)-conjugated secondary antibody (Thermo Fisher Scientific Inc., Waltham, MA, USA) at 1:1000 dilution for 2 h at room temperature. The protein antibody complex was detected using an enhanced chemiluminescence detection system. The grayscale ratio was analyzed by ImageJ and normalized by the grayscale of the ABC protein divided by that of GAPDH.

BCRP ATPase = molecular target: T1, BCRP ATPase (Homo sapiens, UniProt Q9UNQ0); experiment: Vanadate-sensitive BCRP ATPase assay; type: biochemical; conditions: membrane vesicles of High Five insect cells; Figure 10A,B
T1 construct: host or cells: High Five insect cells (membrane vesicles)
T1 sequence (Q9UNQ0 1-655): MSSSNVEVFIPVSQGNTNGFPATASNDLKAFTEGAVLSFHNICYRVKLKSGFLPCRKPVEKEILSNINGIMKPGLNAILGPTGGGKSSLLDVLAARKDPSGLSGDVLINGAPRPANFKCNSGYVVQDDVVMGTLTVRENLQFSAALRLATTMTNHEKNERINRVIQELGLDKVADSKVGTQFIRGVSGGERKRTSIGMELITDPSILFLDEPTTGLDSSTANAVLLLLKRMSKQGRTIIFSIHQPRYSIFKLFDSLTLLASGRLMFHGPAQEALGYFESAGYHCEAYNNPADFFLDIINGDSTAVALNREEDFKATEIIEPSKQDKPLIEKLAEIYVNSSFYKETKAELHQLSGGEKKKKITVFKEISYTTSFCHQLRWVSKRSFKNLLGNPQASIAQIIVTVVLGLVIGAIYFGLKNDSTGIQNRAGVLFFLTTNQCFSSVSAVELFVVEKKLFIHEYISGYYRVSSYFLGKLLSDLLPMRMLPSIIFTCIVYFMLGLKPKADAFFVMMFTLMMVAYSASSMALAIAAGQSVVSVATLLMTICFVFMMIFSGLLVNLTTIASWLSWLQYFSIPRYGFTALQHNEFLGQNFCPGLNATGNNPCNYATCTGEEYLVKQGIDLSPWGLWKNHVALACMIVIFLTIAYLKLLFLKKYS
Procedure: The vanadate (Vi)-sensitive ATPase activity of BCRP and P-gp in the membrane vesicles of High Five insect cells was measured as described previously. The results were presented as vanadate-sensitive ATPase activities by determining the difference in inorganic phosphate liberation measured in the presence and absence of sodium orthovanadate.

[4] = system: P-gp-mediated multidrug-resistant cell line KB-C2; experiment: MTT reversal assay with paclitaxel, KB-C2 cells; type: cell-based, human; conditions: Figure 5A
Procedure: The human lung cancer cell line H460, and its MX-selected derivative BCRP-overexpressing cell line, H460/MX20, were used in this study. The KB-C2 cell line was selected by colchicine (Alfa Aesar, Haverhill, MA, USA) (2 μg/mL) with human cervical carcinoma cell line KB-3-1.
Cytotoxicity tests and reversal experiments were performed using the 3-(4,5-dimethylthiazol-2-yl)-2,5-diphenyltetrazolium bromide (MTT) colorimetric assay. Cells were seeded evenly into 96-well plates. […] To determine the MDR reversal efficacy of the quinazolinamine derivatives, an anticancer drug (mitoxantrone, colchicine, paclitaxel or cisplatin) was added into the designated wells after 2 h pre-incubation with a quinazolinamine derivative or a positive control inhibitor at non-toxic concentrations. After 72 h of drug incubation, the MTT reagent (4 mg/mL) was added into the wells, and then the plates were incubated for an additional 4 h. Subsequently, the supernatant was discarded and 100 µL of dimethyl sulfoxide (DMSO) was added to dissolve the formazan crystals. Cell viability was determined by measuring the absorbance by using an accuSkan™ GO UV/Vis Microplate Spectrophotometer (Fisher Sci., Fair Lawn, NJ, USA) at a wavelength of 570 nm.

SMILES: c1ccc2c(Nc3ccc(C4CC4)cc3)nc(-c3ccncc3)nc2c1 [Compound 22, N-(4-Cyclopropylphenyl)-2-(pyridin-4-yl)quinazolin-4-amine]
- Metabolic Stability, % compound remaining [1]: 92% and 92 ± 8%
- accumulation of mitoxantrone [2]: increased the accumulation
- accumulation of paclitaxel (KB-3-1 cells): did not increase
- accumulation of paclitaxel (KB-C2 cells): significantly increased
- BCRP protein expression level in the cytoplasm ([3]; H460/MX20 cytoplasm fraction, Figure 9B): increased
- expression level of BCRP protein on the membrane ([3]; H460/MX20 membrane fraction, Figure 9A): decreased
- expression level of BCRP protein ([3]; H460/MX20 total cell lysate, Figure 7): did not change the expression level
- effect on Vi-sensitive BCRP ATPase activity (ATP hydrolysis) (BCRP ATPase): significantly stimulated
- sensitization to paclitaxel [4]: could sensitize KB-C2 cells
